The subject of one assay is LT-HSCs. Nature of the assay: CFU assay of LT-HSCs sorted from E14.5 fetal livers of treated embryos. The format is in vivo, mice. The settings on record: DCA-treated embryos vs control and UK5099. On the procedure:
(§1) Pregnant female C57Bl/6xB6.SJL mice were injected intraperitoneally at E9.5 with UK5099 (4 mg/kg) or DCA (200 mg/kg) or PBS (control). Embryos were harvested at E14.5 and individually weighed and processed. Fetal livers were dissected and homogenized in 800 μL ice cold PBS supplemented with 2% fetal bovine serum (FBS) and FL cells were washed in PBS with 2% FBS. For the differentiated lineage panel, cells were stained with B220 and CD19 (B-cell markers)-PE, CD3e-APC, Ter119-PeCy7 and CD71-FITC and analyzed on a BD FACSARIA III. For the HSC panel, samples were first treated with ammonium chloride solution (STEMCELL Technologies, France) to lyse red blood cells, washed twice in ice cold PBS with 2% FBS, stained with CD3e, B220, Ter119, Gr1 (Lineage)-PeCy5, c-Kit-Efluor780, Sca1-BV421, CD48-FITC, CD150-BV605 and 7-AAD (for dead cell exclusion) and analyzed on a BD FACSARIA III. […] For plating of CFU assays, 100 LT-HSCs were sorted (gating strategy shown in FIG. 13, d) and resuspended in 3.0 mL Methocult M3434 (STEMCELL Technologies, France). Each mixture was divided onto 2 wells of a non-tissue culture treated 6-well plate. Following a 14-day incubation in a humidified incubator at 37° C., 5% CO2, 20% O2, colonies were morphologically distinguished and scored.

The test system of the next assay is NSG mice. The assay is described as follows: NSG mice transplantation of DCA-treated HE cells. The format is in vivo. The settings on record: week 8; text does not separate DCA from control. On the procedure:
Sorted human HE cells (350,000) were mixed with OP9-DL1 stroma (60,000) and subcultured for 3 days with or without DCA (3 mM) on Matrigel (16 μg/cm^2, Corning)-coated 12-well plates in HE medium^30. Between 100,000-150,000 cells from control or DCA samples were transplanted into sub-lethally irradiated (300 cGy) 8-week-old female NOD/Cg-Prkdc^scid Il2rg^tm1Wjl/SzJ mice (NSG, The Jackson Laboratory) together with 20,000 whole bone marrow support cells from C57Bl/6.SJL mice (CD45.1+/CD45.2+, in house breeding). Cells were transplanted in single cell solution in 250 μL PBS with 2% FBS through intravenous tail vein injection. Drinking water of transplanted NSG mice was supplemented with ciprofloxacin (125 mg/L, HEXAL) for 3 weeks after transplantation to prevent infection. Mice were housed in a controlled environment with 12-hour light-dark cycles with chow and water provided ad libitum. Experiments and animal care were performed in accordance with the Lund University Animal Ethical Committee.
Peripheral blood (PB) was collected from the tail vein into EDTA-coated microvette tubes (Sarstedt, Cat #20.1341.100). […]
Bone marrow was analyzed at the 12-week transplantation endpoint. […]

Assay [1] has as its system HE cells. The assay is described as follows: Lymphoid differentiation assay on OP9-DL1 stroma. The format is cell-based, human. The following applies: 3-day subculture with UK5099 10 μM or DCA 3 mM, then 35-day co-culture, vs untreated. As to the method:
Subculture day 3 HE cells cultured in the presence of UK5099 (10 μM), DCA (3 mM), or in glutamine-free medium with DMK (1.75 mM), nucleosides (1×) or NEAAs (1×), as indicated, were collected after a 2-minute incubation at 37° C. with StemPro Accutase Cell Dissociation Reagent and seeded onto 80% confluent OP9-DL1 stroma. Cells were cultured in OP9 medium with SCF (10 ng/ml), FLT3-L (10 ng/ml), IL-2 (5 ng/ml), IL-7 (5 ng/ml, first 15 days only) and IL-15 (10 ng/ml) with passaging onto new OP9-DL1 stroma every week, as described previously (Renoux, V. M. et al. Immunity 43, 394-407 (2015)). At day 35 of co-culture, cells were analyzed on a BD LSRFortessa.

The test system of assay [2] is mitochondrial pyruvate carrier (MPC). The following applies: read-out: IC50 of pyruvate-dependent O2 consumption; cited from earlier work.
Assay [3] concerns HE cells. Nature of the assay: globin transcript q-PCR in CFU colonies. The format is cell-based, human. The settings on record: normalized to KLF1, relative to non-treated. As to the method: Subcultured HE cells were treated with StemPro Accutase Cell Dissociation Reagent for 2 minutes at 37° C. and dissociated cells were resuspended in 3 ml Methocult H4230 (STEMCELL Technologies, France) (prepared according to manufacturer's instructions, with 20 mL Iscove's Modified Dulbecco's Medium containing 2.5 μg hSCF, 5 μg GM-CSF, 2.5 μg IL-3 and 500 U EPO). Each mixture was divided onto 2 wells of a non-tissue culture treated 6-well plate. Following a 12-day incubation in a humidified incubator at 37° C., 5% CO2, 20% O2, colonies were morphologically distinguished and scored. For globin analysis, colonies in Methocult wells were harvested with PBS, washed thoroughly and frozen in RLT buffer with β-mercaptoethanol. Following RNA extraction and RT (Qiagen), gene expression was assessed with taqman probes by q-PCR. The taqman probes used in this study are HBA1/2 (Hs00361191_g1), HBE1 (Hs00362216_m1), HBG2/1 (Hs00361131_g1) and KLF1 (Hs00610592_m1).

Another assay concerns C57Bl/6xB6.SJL mice. The assay is described as follows: In vivo compound injection of pregnant mice, fetal liver analysis at E14.5. On the procedure:
as §1

`O=C(O)C(Cl)Cl` [DCA, dichloroacetate]: the “decrease in the BFU-E to CFU-GM ratio” value with LT-HSCs is reported as 80%. Further, the “engraftment: human CD45+ cells in the peripheral blood” value with NSG mice is recorded as “around 1%”.
Usually IC50 stands for the midpoint of a concentration-inhibition curve. Consider `N#C/C(=C\c1cn(-c2ccccc2)c2ccccc12)C(=O)O` [UK5099], for which, in the assay with HE cells [1], the “NK cell differentiation (CD45+CD56+)” value is listed as “impaired NK cell formation”. Besides, the IC50 in assay [2] was […]. In the assay on HE cells [3], the “HBA1-2 (adult globin) expression” value is on record as “did not have an effect”, the “HBE1 (embryonic) globin transcripts” value is listed as “significant increase” and the “HBG1-2 (fetal) globin transcripts” value was “significant increase”. For the same molecule, in the assay with C57Bl/6xB6.SJL mice (UK5099 4 mg/kg i.p. at E9.5), the “effect on in vivo EHT and hematopoiesis” value is given as “No significant effect”. Further, the “frequency of phenotypic long-term HSCs (LT-HSCs)” value in the assay with C57Bl/6xB6.SJL mice (fetal liver E14.5, i.p. at E9.5, UK5099 4 mg/kg or DCA 200 mg/kg) is “not affected”.

These data come from patent US20220348876A1, “METABOLISM GUIDES DEFINITIVE LINEAGE SPECIFICATION DURING ENDOTHELIAL TO HEMATOPOIETIC TRANSITION” (Amniotics AB, priority 2019, published 2022).
